The source of these data is US20260193274A1, “AKT1 MODULATORS” (Alterome Therapeutics, Inc., priority 2022, published 2026).

The target of the test is T1, AKT1-E17K (Homo sapiens, UniProt P31749, E17K).
T1 construct: host or cells: HEK-293 (ATCC CRL-1573)
T1 sequence (P31749 whole entry E17K): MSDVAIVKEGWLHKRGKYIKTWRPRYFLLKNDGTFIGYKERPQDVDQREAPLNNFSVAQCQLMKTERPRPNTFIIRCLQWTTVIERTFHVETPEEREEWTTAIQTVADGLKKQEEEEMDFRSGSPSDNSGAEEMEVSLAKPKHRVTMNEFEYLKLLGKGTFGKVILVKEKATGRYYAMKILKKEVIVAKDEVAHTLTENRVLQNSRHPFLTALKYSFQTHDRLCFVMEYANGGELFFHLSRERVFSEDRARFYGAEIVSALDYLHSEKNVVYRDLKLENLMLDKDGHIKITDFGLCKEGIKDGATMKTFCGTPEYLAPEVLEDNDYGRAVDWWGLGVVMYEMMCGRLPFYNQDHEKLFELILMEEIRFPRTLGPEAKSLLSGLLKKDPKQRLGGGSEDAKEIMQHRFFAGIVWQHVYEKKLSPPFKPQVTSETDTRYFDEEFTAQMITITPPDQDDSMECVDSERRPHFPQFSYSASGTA
The test can be described thus: NanoBRET Target Engagement (TE) Assay. The following applies: full length AKT E17K NanoLuc fusion in transfected HEK-293 cells; 2 hr equilibration with tracer and compound. The format is cell-based. The source says: NanoBRET is a highly specific and validated cell-based technique for assessing target engagement (Vasta et al., 2018, Cell Chem Biol. 25(2):206-214). The NanoBRET™ Target Engagement (TE) Intracellular Kinase Assays are based on the NanoBRET™ System (Promega Corporation), an energy transfer technique designed to measure molecular proximity in living cells. The NanoBRET™ TE Assays measure the apparent affinity of test compounds by competitive displacement of the NanoBRET™ tracer compound, which is a cell permeable molecule engineered to be reversibly bound to a NanoLuc® luciferase-kinase fusion expressed in cells. For compound screening, when a test compound binds to the selected kinase, the BRET signal is attenuated. For kinase inhibitors in particular, intracellular target selectivity is fundamental to pharmacological mechanism and allows the proteins of interest to be in the correct cellular confirmation. Although non-cell-based techniques have been developed to measure kinase binding or enzymatic inhibition with accuracy and precision, such approaches can fail to accurately predict engagement of the full-length target protein in the more complex and biologically relevant cellular context (Knight and Shokat, 2005, Chem. Biol. 12, 621-637; Smyth and Collins, 2009, J. Chem. Biol. 2, 131-151). […] Briefly, HEK-293 cells (ATCC Cat #CRL-1573) were used for transfection purposes using FuGENE HD Transfection Reagent (Promega Cat #E2311). All cells were evaluated for viability prior to transfection and optimization of the transfection was done prior to experimentation. Greater than 95% viability was used for all experiments. Following transfection, cells were washed and resuspended in Opti-MEM. NanoBRET assays were performed in white, 384-well plates (Corning) at a density of 2×10^5 cells/well. All example compounds were prepared as concentrated stock solutions in DMSO (Sigma-Aldrich). Compounds are dissolved in DMSO to make 10 mM stock solution. Example compounds were transferred as 40 μL of 10 mM stock solution to a 384 pp-plate (LABCYTE, PP-0200) and diluted in 3-fold, 10-point dilution via transferring […] by Apricot liquid handler. A Labcyte ECHO 550 compound dispenser was used to facilitate compound transfer directly to cells. Cells were equilibrated for 2 hr with energy transfer probes and example compound prior to BRET measurements. The AKTE17K (Promega Cat #NV2421) as well as specific probe (NanoBRET tracer, Promega Cat #N264B) was prepared at a concentration of 20× in tracer dilution buffer (12.5 mM HEPES, 31.25% PEG-400, pH 7.5). For target engagement analysis, the energy transfer probes were added to the cells at concentrations optimized for the target in question (AKT E17K). Following compound incubation, NanoBRET NanoGlo Substrate (Promega Cat #N157D) and Extracellular Nanoluc Inhibitor (Promega Cat #N235C) was added according to the manufacturer's recommended protocol, and luminescence was measured on Envision Reader (Perkin Elmer) Multimode Luminometer equipped with 450 nmBPfilter (donor) and 600 nmLPfilter (acceptor), using 0.5 s integration time. Milli-BRET units (mBU) are calculated by multiplying the raw BRET values by 1000. Apparent tracer affinity values (EC50) were determined using the sigmoidal dose-response (variable slope). Competitive displacement data were then plotted and data were fit to determine the EC50 value for each example compound.
On the technique in general: Bioluminescence resonance energy transfer reports proximity on the nanometre scale.
For the molecule `N#CN1CC2CCC(C1)N2Cc1ccc(-n2c(-c3cccnc3N)nc3ccc(-c4ccccc4)nc32)cc1` [Example 29, 8-(4-(2-(2-Aminopyridin-3-yl)-5-phenyl-3H-imidazo[4,5-b]pyridin-3-yl)benzyl)-3,8-diazabicyclo[3.2.1]octane-3-carbonitrile], the IC50 (usually the concentration needed to halve the response being measured) was in the range of 15 to 60 nM.
The value for `N#CN[C@@H]1CCN(Cc2ccc(-n3c(-c4cccnc4N)nc4ccc(-c5ccccc5)nc43)cc2)C1` [Example 10, (R)—N-(1-(4-(2-(2-Aminopyridin-3-yl)-5-phenyl-3H-imidazo[4,5-b]pyridin-3-yl)benzyl)pyrrolidin-3-yl)cyanamide] was under 15 nM.
The value for `C[C@@H]1CN(Cc2ccc(-n3c(-c4cccnc4N)nc4ccc(-c5ccccc5)nc43)cc2)C[C@H](C)N1C#N` [Example 36, (2S,6R)-4-(4-(2-(2-Aminopyridin-3-yl)-5-phenyl-3H-imidazo[4,5-b]pyridin-3-yl)benzyl)-2,6-dimethylpiperazine-1-carbonitrile] was over 600 nM; that for `N#CN1CC2CCC1CN2Cc1ccc(-n2c(-c3cccnc3N)nc3ccc(-c4ccccc4)nc32)cc1` (centres unmarked) [Example 37, 5-(4-(2-(2-Aminopyridin-3-yl)-5-phenyl-3H-imidazo[4,5-b]pyridin-3-yl)benzyl)-2,5-diazabicyclo[2.2.2]octane-2-carbonitrile] was 60 to 600 nM.
As for `N#CN1C[C@H]2C[C@@H]1CN2Cc1ccc(-n2c(-c3cccnc3N)nc3ccc(-c4ccccc4)nc32)cc1` [Example 35, (1R,4R)-5-(4-(2-(2-Aminopyridin-3-yl)-5-phenyl-3H-imidazo[4,5-b]pyridin-3-yl)benzyl)-2,5-diazabicyclo[2.2.1]heptane-2-carbonitrile], the 50% inhibitory concentration (IC50) is 60 to 600 nM.
The value for `N#CN1CCC2(CC1)CCN(Cc1ccc(-n3c(-c4cccnc4N)nc4ccc(-c5ccccc5)nc43)cc1)C2` [Example 20, 2-(4-(2-(2-Aminopyridin-3-yl)-5-phenyl-3H-imidazo[4,5-b]pyridin-3-yl)benzyl)-2,8-diazaspiro[4.5]decane-8-carbonitrile] was 15 to 60 nM.
The same measure for `N#CNC1CCCN(Cc2ccc(-n3c(-c4cccnc4N)nc4ccc(-c5ccccc5)nc43)cc2)CC1` (centres unmarked) [Example 30, N-(1-(4-(2-(2-Aminopyridin-3-yl)-5-phenyl-3H-imidazo[4,5-b]pyridin-3-yl)benzyl)azepan-4-yl)cyanamide]: 15 to 60 nM.
The value for `N#CN1CCN(Cc2ccc(-n3c(-c4cccnc4N)nc4ccc(-c5ccccc5)nc43)cc2)CC12CC2` [Example 33, 7-(4-(2-(2-Aminopyridin-3-yl)-5-phenyl-3H-imidazo[4,5-b]pyridin-3-yl)benzyl)-4,7-diazaspiro[2.5]octane-4-carbonitrile] was 60 to 600 nM; that for `N#CN1CCC2(CC1)CCN(Cc1ccc(-n3c(-c4cccnc4N)nc4ccc(-c5ccccc5)nc43)cc1)CC2` [Example 17, 9-(4-(2-(2-Aminopyridin-3-yl)-5-phenyl-3H-imidazo[4,5-b]pyridin-3-yl)benzyl)-3,9-diazaspiro[5.5]undecane-3-carbonitrile] was 15 to 60 nM.
`N#CN1CCCN(Cc2ccc(-n3c(-c4cccnc4N)nc4ccc(-c5ccccc5)nc43)cc2)CC1` [Example 12, 4-(4-(2-(2-Aminopyridin-3-yl)-5-phenyl-3H-imidazo[4,5-b]pyridin-3-yl)benzyl)-1,4-diazepane-1-carbonitrile]: the IC50 lay within 60 to 600 nM.
On to `C[C@H]1CN(Cc2ccc(-n3c(-c4cccnc4N)nc4ccc(-c5ccccc5)nc43)cc2)CCN1C#N` [Example 32, (S)-4-(4-(2-(2-Aminopyridin-3-yl)-5-phenyl-3H-imidazo[4,5-b]pyridin-3-yl)benzyl)-2-methylpiperazine-1-carbonitrile], for which the IC50 was over 600 nM.
In the case of `N#CN1CC2(CCN(Cc3ccc(-n4c(-c5cccnc5N)nc5ccc(-c6ccccc6)nc54)cc3)CC2)C1` [Example 15, 7-(4-(2-(2-Aminopyridin-3-yl)-5-phenyl-3H-imidazo[4,5-b]pyridin-3-yl)benzyl)-2,7-diazaspiro[3.5]nonane-2-carbonitrile], the IC50 lay in the range of 15 to 60 nM.
The value for `C[C@@H]1CN(Cc2ccc(-n3c(-c4cccnc4N)nc4ccc(-c5ccccc5)nc43)cc2)C[C@@H](C)N1C#N` [Example 26, (2R,6R)-4-(4-(2-(2-Aminopyridin-3-yl)-5-phenyl-3H-imidazo[4,5-b]pyridin-3-yl)benzyl)-2,6-dimethylpiperazine-1-carbonitrile] was over 600 nM; that for `N#CN[C@H]1CCN(Cc2ccc(-n3c(-c4cccnc4N)nc4ccc(-c5ccccc5)nc43)cc2)C1` [Example 7, (S)—N-(1-(4-(2-(2-Aminopyridin-3-yl)-5-phenyl-3H-imidazo[4,5-b]pyridin-3-yl)benzyl)pyrrolidin-3-yl)cyanamide] was under 15 nM.
The same measure for `N#CNC1CCN(Cc2ccc(-n3c(-c4cccnc4N)nc4cccnc43)cc2)CC1` [Example 1, N-(1-(4-(2-(2-Aminopyridin-3-yl)-3H-imidazo[4,5-b]pyridin-3-yl)benzyl)piperidin-4-yl)cyanamide]: over 600 nM; for `N#CN1CCCC2(CCN(Cc3ccc(-n4c(-c5cccnc5N)nc5ccc(-c6ccccc6)nc54)cc3)CC2)C1` [Example 24, 9-(4-(2-(2-Aminopyridin-3-yl)-5-phenyl-3H-imidazo[4,5-b]pyridin-3-yl)benzyl)-2,9-diazaspiro[5.5]undecane-2-carbonitrile]: 60 to 600 nM; for `N#CNC1CCN(Cc2ccc(-n3c(-c4cccnc4N)nc4ccc(-c5ccccc5)nc43)cc2)CC1` [Example 3, N-(1-(4-(2-(2-Aminopyridin-3-yl)-5-phenyl-3H-imidazo[4,5-b]pyridin-3-yl)benzyl)piperidin-4-yl)cyanamide]: under 15 nM.
The value for `N#CNN1CCN(Cc2ccc(-n3c(-c4cccnc4N)nc4ccc(-c5ccccc5)nc43)cc2)CC1` [Example 42, N-(4-(4-(2-(2-Aminopyridin-3-yl)-5-phenyl-3H-imidazo[4,5-b]pyridin-3-yl)benzyl)piperazin-1-yl)cyanamide] was under 15 nM; that for `N#CNC1CCCCN(Cc2ccc(-n3c(-c4cccnc4N)nc4ccc(-c5ccccc5)nc43)cc2)C1` (centres unmarked) [Example 31, N-(1-(4-(2-(2-Aminopyridin-3-yl)-5-phenyl-3H-imidazo[4,5-b]pyridin-3-yl)benzyl)azepan-3-yl)cyanamide] was 60 to 600 nM.
Regarding `N#CNC1CCC2(CC1)CCN(Cc1ccc(-n3c(-c4cccnc4N)nc4ccc(-c5ccccc5)nc43)cc1)C2` (centres unmarked) [Example 8, N-(2-(4-(2-(2-Aminopyridin-3-yl)-5-phenyl-3H-imidazo[4,5-b]pyridin-3-yl)benzyl)-2-azaspiro[4.5]decan-8-yl)cyanamide], the half-inhibitory concentration (IC50) fell in the range of 60 to 600 nM.
`C[C@H]1CN(Cc2ccc(-n3c(-c4cccnc4N)nc4ccc(-c5ccccc5)nc43)cc2)C[C@H](C)N1C#N` [Example 25, (2S,6S)-4-(4-(2-(2-Aminopyridin-3-yl)-5-phenyl-3H-imidazo[4,5-b]pyridin-3-yl)benzyl)-2,6-dimethylpiperazine-1-carbonitrile] showed an IC50 of 60 to 600 nM.
The value for `C[C@@H]1CN(Cc2ccc(-n3c(-c4cccnc4N)nc4ccc(-c5ccccc5)nc43)cc2)CCN1C#N` [Example 27, (R)-4-(4-(2-(2-Aminopyridin-3-yl)-5-phenyl-3H-imidazo[4,5-b]pyridin-3-yl)benzyl)-2-methylpiperazine-1-carbonitrile] was over 600 nM; that for `N#CN[C@@H]1CCCN(Cc2ccc(-n3c(-c4cccnc4N)nc4ccc(-c5ccccc5)nc43)cc2)C1` [Example 9, (R)—N-(1-(4-(2-(2-Aminopyridin-3-yl)-5-phenyl-3H-imidazo[4,5-b]pyridin-3-yl)benzyl)piperidin-3-yl)cyanamide] was 15 to 60 nM.
